{"source": "patent US8372848B2", "about": "“Melanin-concentrating hormone receptor antagonists and methods of use” (Mixture Sciences, Inc., priority 2004, dated 2013)", "key": {"rats [1]": {"tested_on": "rats", "assay": "Spontaneous activity (ambulatory and non-ambulatory movements) after icv administration, Example IV", "format": "in vivo, rat", "description": "To determine the effect of TPI 1361-17 on spontaneous activity on rats, intraventricular cannulated rats were acclimatized to the testing situation. […] Ambulatory movements and non-ambulatory movements were monitored for 60 minutes upon administration of five nmol TPI 1361-17 or ACSF (FIGS. 4A, 4B).\nFor these experiments, ambulatory movements were recorded using a Hamilton-Kinder Activity Monitor (with the infrared beams in a 4×8 configured frame). Locomotion was quantified in transparent polycarbonate cages (32×26×20 cm) placed within the activity frames. Animal position was detected by two dimensional beam breaks. The ambulation was tabulated as a movement that results in the change of location. All other beam breaks are categorized as non-ambulatory, fine movement. Animals were acclimatized to the novel home cage-environment for 60 minutes before injection, then were removed, injected and immediately replaced in the same cage, and monitoring began. Locomotion was measured for 60 minutes after the ICV administration of either ACSF or 5 nmol TPI 1361-17.\nFor animal studies, adult male Sprague-Dawley rats weighing 200-300g were obtained from Charles River Laboratories (Wilmington, Mass.), bearing a 23-gauge stainless steel cannula placed into the right lateral ventricle. […]"}, "rat MCH1R": {"molecular_target": "rat MCH1R (Rattus norvegicus, UniProt P97639)", "sequence (P97639 whole entry)": "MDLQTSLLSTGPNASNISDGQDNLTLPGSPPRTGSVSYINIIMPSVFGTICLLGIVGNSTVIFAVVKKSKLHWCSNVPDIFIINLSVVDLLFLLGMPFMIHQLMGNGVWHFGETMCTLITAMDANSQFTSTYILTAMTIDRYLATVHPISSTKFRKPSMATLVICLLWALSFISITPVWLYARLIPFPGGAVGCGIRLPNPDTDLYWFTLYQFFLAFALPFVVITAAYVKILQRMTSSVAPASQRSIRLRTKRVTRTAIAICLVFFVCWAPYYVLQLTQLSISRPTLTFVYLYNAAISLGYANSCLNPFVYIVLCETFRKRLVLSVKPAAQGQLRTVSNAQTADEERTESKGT", "assay": "[125I] MCH binding to membrane fractions of MCH1R expressing HEK-293T", "description": "Cell pellet was homogenized with ice-cold 50 mM Tris-HCl buffer (pH 7.4) containing 5 mM EDTA, and ultra-centrifuged twice at 48,000×g for 20 min at 4° C. The pellets were then suspended in 50 mM Tris-HCl (pH 7.4) buffer containing 5 mM EDTA and used as membrane fractions. […] The radioactivity retained in the filters was determined with a γ-counter. IC50 values calculated as described above are expressed as the mean +S.E.M. for three independent determinations. DNA was mixed with LipofectAMINE transfection reagents (Life Technologies, MD), and the mixture was diluted with Opti-MEM and added to 60-70% confluent HEK 293T cells plated on 100-mm dishes. The transfected cells were cultured in DMEM containing 10% FBS."}, "[2]": {"molecular_target": "kappa opioid receptor (dynorphin) (Homo sapiens, UniProt P41145)", "sequence (P41145 whole entry)": "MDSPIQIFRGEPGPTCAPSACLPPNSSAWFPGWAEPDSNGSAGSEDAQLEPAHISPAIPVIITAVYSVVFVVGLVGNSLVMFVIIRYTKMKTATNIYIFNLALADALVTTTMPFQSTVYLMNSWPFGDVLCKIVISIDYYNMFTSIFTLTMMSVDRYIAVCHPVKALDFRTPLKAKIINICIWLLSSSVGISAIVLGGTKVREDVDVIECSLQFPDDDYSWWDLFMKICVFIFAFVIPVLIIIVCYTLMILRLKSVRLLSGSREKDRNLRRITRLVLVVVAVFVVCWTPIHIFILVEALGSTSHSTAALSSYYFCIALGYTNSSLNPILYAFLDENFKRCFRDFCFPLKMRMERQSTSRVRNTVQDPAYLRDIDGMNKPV", "assay": "Selectivity versus kappa opioid receptor", "format": "cell-based"}, "orexin 1R": {"molecular_target": "T1, orexin 1R (Homo sapiens, UniProt O43613)", "T1 sequence (O43613 1-425)": "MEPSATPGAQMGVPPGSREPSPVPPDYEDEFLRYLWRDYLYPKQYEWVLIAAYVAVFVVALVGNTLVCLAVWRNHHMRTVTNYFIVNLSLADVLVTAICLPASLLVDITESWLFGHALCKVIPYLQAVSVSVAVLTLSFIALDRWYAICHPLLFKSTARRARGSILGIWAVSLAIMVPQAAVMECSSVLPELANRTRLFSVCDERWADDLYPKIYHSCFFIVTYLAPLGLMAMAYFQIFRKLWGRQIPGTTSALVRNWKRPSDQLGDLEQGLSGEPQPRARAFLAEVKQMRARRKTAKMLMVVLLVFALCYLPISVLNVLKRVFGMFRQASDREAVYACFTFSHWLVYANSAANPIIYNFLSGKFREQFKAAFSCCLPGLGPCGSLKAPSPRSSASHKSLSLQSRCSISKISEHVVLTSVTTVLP", "assay": "Selectivity versus orexin 1R", "format": "cell-based"}, "rats [3]": {"tested_on": "rats", "assay": "MCH-induced food intake after icv administration", "format": "in vivo, rat", "description": "To determine inhibitory effects of TPI 1361-17 on MCH-induced food intake, rats were habituated to a wire bottom cage for more than 3 weeks prior to the experiment. Experiments were carried out from 6 a.m. to 7 a.m. when rats were satiated. […] On the other hand, five nmol of TPI 1361-17 suppressed cumulative food intake by 75% even at 4h (FIG. 5B).\nTo determine the effects of TPI 1361-17 on MCH-induced food intake, rats were randomly divided into three groups: 1) TPI 1361-17 (dissolved in DMSO) and 2 nmol of MCH; 2) MCH 2 nmol, 3) ACSF. Each mixture contained a DMSO equivalent concentration to that of the antagonist solution (up to 5% (v/v)). Ten μl of each solution was administered into lateral ventricle for 2 minutes. The injections were done between 7:00-8:00 a.m., and food intake was monitored for 4 h after the injection.\nFor animal studies, adult male Sprague-Dawley rats weighing 200-300g were obtained from Charles River Laboratories (Wilmington, Mass.), bearing a 23-gauge stainless steel cannula placed into the right lateral ventricle. Rats were housed individually and maintained on a 12 h light-dark cycle (6:00 am-6:00 pm light) with free access to tap water and rat chaw (PROLAB RMH 2500, containing 23.0% protein, 4.5% fat, gross energy 4.5 kcal/g. PMI nutrition international, LLC. Brentwood, Mo.). Prior to all studies, rats were handled and habituated for 7 days, and 10 μl of artificial cerebrospinal fluid (ACSF: NaCl 124, KCl 5, CaCl2 2.4 MgSO4 2, KH2PO4 1.25, NaHCO3 26 and glucose 10, in mM) was injected through the cannula to minimize stress effects at the time of the experiment. Cannula placement was confirmed in all animals by evaluating the response to 50 ng of angiotensin II. Only animals drinking more than 5 ml of water in 1 h were used in feeding studies."}, "rats [4]": {"tested_on": "rats", "assay": "Motor activity in rats, Example VI", "format": "in vivo, rat", "conditions": "10 nM i.c.v.", "description": "Sprague Dawley rats were randomly divided into two groups (Group I and Group II) of eight (8) rats each. The rats in Group I (n=8) received 0.9% saline by i.c.v. injection. The rats in Group II (n−8) received 10 nM TPI 1361-17 (Formula IV) by i.c.v. injection. […] Once each day thereafter, for a total of ______ days, the rats were taken into a test room, allowed to acclimatize for ______ minutes, then placed in four identical chambers (43 cm×43 cm×30.5 cm) that were connected to a common interface and computer (MED Associates, Inc., St. Albans, Vt.). Horizontal movement of the rats was monitored by 16 photobeams per side evenly spaced along each wall of two adjacent sides of each test chamber."}, "[5]": {"molecular_target": "T2, prolactin releasing peptide (PrRP) receptor (Homo sapiens, UniProt P49683)", "T2 sequence (P49683 1-370)": "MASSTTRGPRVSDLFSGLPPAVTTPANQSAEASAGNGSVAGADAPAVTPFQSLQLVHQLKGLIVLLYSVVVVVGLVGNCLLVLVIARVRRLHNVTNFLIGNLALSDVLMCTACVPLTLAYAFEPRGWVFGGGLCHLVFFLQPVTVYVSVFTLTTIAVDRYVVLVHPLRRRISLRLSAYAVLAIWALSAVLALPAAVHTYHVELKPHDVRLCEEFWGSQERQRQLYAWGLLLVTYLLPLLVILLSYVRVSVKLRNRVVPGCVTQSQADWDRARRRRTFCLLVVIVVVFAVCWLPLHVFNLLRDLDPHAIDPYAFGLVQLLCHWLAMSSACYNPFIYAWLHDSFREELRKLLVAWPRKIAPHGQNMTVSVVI", "assay": "Selectivity versus PrRP receptor", "format": "cell-based"}}, "note": "Entries after “also recorded” stand apart in the source; their conditions may differ."}
{"molecule": "C[C@@H](CNCc1ccccc1)N1C[C@H](CCCNC(=N)N)N(CCc2cccc(F)c2)C1=S", "note": "[TPI 1361-17, N-(3-{(4S)-1-[(1S)-2-(benzylamino)-1-methylethyl]-3-[2-(3-fluorophenyl)ethyl]-2-thioxoimidazolidin-4-yl}propyl)guanidine]", "values": [{"measurement": "Total amounts of non-ambulatory or ambulatory movements versus ACSF", "setting": "rats [1]; 5 nmol icv, 60 minutes", "value": "no significant differences"}, {"measurement": "Detectable changes in movement", "setting": "rats [1]; five or one nmol icv", "value": "did not exhibit any detectable changes in movement; also recorded: did not affect locomotion or fine movements"}, {"measurement": "Displacement of [125I] MCH binding to rat MCH1R", "setting": "rat MCH1R", "value": "completely displaced"}, {"measurement": "IC50", "setting": "rat MCH1R; mean ±S.E.M., 0.1 nM radioligand, read-out: IC50 for displacement of [125I] MCH binding", "value": "140 ± 34.6", "unit": "nM"}, {"measurement": "Selectivity for MCH1R compared with kappa opioid receptor", "setting": "[2]", "value": "more than 1,000 fold"}, {"measurement": "Selectivity for MCH1R compared with orexin 1R", "setting": "orexin 1R", "value": "more than 1,000 fold"}, {"measurement": "MCH-induced food intake at the low dose", "setting": "rats [3]; 1 nmol icv with 2 nmol MCH, reversed over the next two hours", "value": "decreased MCH-induced food intake for 1 h and 2h"}, {"measurement": "Suppression of cumulative MCH-induced food intake", "setting": "rats [3]; 5 nmol icv with 2 nmol MCH, at 4h", "value": 75, "unit": "%"}, {"measurement": "Reduction of MCH-induced food intake, maximal", "setting": "rats [3]; dose dependent, icv, SD rats, beginning of light phase", "value": "up to 75%"}, {"measurement": "Duration of the effect on MCH-induced food intake", "setting": "rats [3]; icv", "value": "over 4 h"}, {"measurement": "Motor activity versus control (distance traveled, time resting, time ambulatory, ambulatory counts, time stereotypic, stereotypic counts)", "setting": "rats [4]", "value": "no significant differences"}, {"measurement": "Selectivity for MCH1R compared with PrRP receptor", "setting": "[5]", "value": "more than 1,000 fold"}]}
